For the assay, the system named is mice. The assay can be described thus: hot plate assay for antinociception in mice. Format: in vivo, mouse. The note with it: for analgesic effect in the mouse hot plate assay compared to morphine / ED50: SC; for ED50: tested thirty minutes after drug administration. As for the experimental part:
The hot plate assay is adapted from the procedure originally described by O'Callaghan and Holtzman (JPET, 192, 497, 1975) and is commonly used to determine the potential analgesic efficacy of opioid agonists. The antinociceptive effect of the composition(s) described herein in the hot plate is expressed in % MPE (Maximum Possible Effect).
Rats (175-250 g) or mice (20-30 g) acclimated to the vivarium for at least 48 hr prior to behavioral testing. Test drugs were administered by the subcutaneous (SC) route. Animals were placed on the hot plate, which the temperature was set at 50-56° C., depending on the in vitro potency of the compound. A cutoff time of 30-60 seconds was used depending on the temperature of the hot plate so that the paws of the animal displaying analgesia, was not damaged by the heat stimulus. The cutoff time was considered a 100% response to the thermal insult. Prior to drug treatment, each animal was tested to determine the baseline response. Thirty minutes after drug administration, animals were re-tested. Dose response experiments were performed to evaluate the potency of the test compound when various doses were administered at the point when maximal analgesia is observed.
The % MPE was calculated according to the following formula: % MPE=[(Post drug latency−baseline latency)/(60 or 30−baseline latency)]×100
ED50 values were calculated from the mean % MPE values for each group using log dose-response curves by least-squares regression analysis.
(Hot-plate and tail-flick tests time the reaction to a heat stimulus.)

Molecules are shown by their SMILES.

Five compounds from US11077098B2, “Opioid receptor ligands and methods of using and making same” (TREVENA, INC., priority 2011, dated 2021) can be followed below.

For orientation: ED50 means the dose that gives a 50% effect, or the effect in half of the subjects. High values mean weaker potency, low ones greater potency.

Regarding `c1ccc(CNCC[C@@]2(c3ccccn3)CCOC3(CCCC3)C2)cc1` [Compound 28], the “analgesic effect in the mouse hot plate assay compared to morphine” value is on record as “more robust analgesic effect”. This compound also gave an ED50 (mouse hot plate) of 1.2 mg/kg.
Regarding `Fc1ccc([C@]2(CCNCc3ccccc3)CCOC3(CCCC3)C2)cc1` [Compound 81, benzyl({2-[(9R)-9-(4-fluorophenyl)-6-oxaspiro[4.5]decan-9-yl]ethyl})amine], the “% MPE” value (mouse hot plate, at 10 mg/kg SC) worked out at 100% at 10.
As for `Cc1cccc(CNCC[C@@]2(c3ccc(F)cc3)CCOC3(CCCC3)C2)c1` [Compound 122, {2-[(9R)-9-(4-fluorophenyl)-6-oxaspiro[4.5]decan-9-yl]ethyl}[(3-methylphenyl)methyl]amine], the “analgesic effect in the mouse hot plate assay compared to morphine” value is “more robust analgesic effect”. Under “mouse hot plate”, this compound came in with an ED50 of 1.1 mg/kg.
Under “mouse hot plate”, `Cc1ccc(CNCC[C@@]2(c3ccc(F)cc3)CCOC3(CCCC3)C2)s1` [Compound 145] displayed a median effective dose (ED50) of 5.9 mg/kg.
Regarding `CN1CC[C@]23c4c5ccc(O)c4O[C@H]2[C@@H](O)C=C[C@H]3[C@H]1C5` [Morphine, reference compound], the “efficacy in the mouse hot plate” value (at a dose of 10 mg/kg SC) is on record as “full efficacy”. Moreover, the ED50 (mouse hot plate) turned out to be 3.8 mg/kg.
